Data on 101 compounds can be found in PubChem BioAssay AID1117361 (Southern Research Institute, 2015).

The structures appear in SMILES notation.

As a reminder, the IC50 is the midpoint of a concentration-inhibition curve.

This test deals with Protein Tat (Human immunodeficiency virus type 1 group M subtype B (isolate HXB2)) (UniProt P04608). As to the kind of experiment: HIV-1 Tat–TAR interaction blockers – biochemical, fluorescence polarization, FAM-labeled TAR RNA, counter-screen for Vif-APOBEC3G degradation inhibitor project, dose response (AID 1117361). The note with it: Tat-TAR RNA binding. (Polarisation of emitted light reports the rotation of a fluorescent probe.)
Chain of Protein Tat (Human immunodeficiency virus type 1 group M subtype B (isolate HXB2)) (P04608 whole entry, looked up): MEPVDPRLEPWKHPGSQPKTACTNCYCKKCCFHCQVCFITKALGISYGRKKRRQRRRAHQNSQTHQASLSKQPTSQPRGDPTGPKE
As for `Cc1c2ccccc2nc2c(F)c(N(C)C)c(F)c(F)c12`, the IC50 was 6.51 µM.

On to `CC1(CCl)N([O-])C2=C(CCCC2)[N+]1=O` (stereo unspecified), for which the IC50 is 44.6 µM.

Regarding `CCn1c(SC(C)C(=O)O)nc2sc3c(c2c1=O)CCC3` (stereo unspecified), the IC50 was 70.4 µM.

Turning to `O=C(Nc1ccn(-c2ccccc2)n1)c1ccccc1Br`, the IC50 is 30.2 µM.

As to `CCN(CC(=O)Nc1c(C(=O)OC)[nH]c2ccccc12)c1ccc2c(c1)OCO2`, the IC50 was 14.3 µM.

In the case of `O=C1CC(Nc2ccc(N3CCOCC3)cc2)C(=O)N1c1ccccc1F` (stereo unspecified), the IC50 is 12.9 µM.

Consider `COc1ccccc1N1C(=O)NC(=O)/C(=C/c2ccc([N+](=O)[O-])s2)C1=O`, for which the IC50 is 17.6 µM.

For `O=C(OCC1O[C@@H](OC(=O)c2cc(O)c(O)c(O)c2)[C@@H](OC(=O)c2cc(O)c(O)c(O)c2)[C@@H](OC(=O)c2cc(O)c(O)c(O)c2)[C@@H]1OC(=O)c1cc(O)c(O)c(O)c1)c1cc(O)c(O)c(O)c1` (stereo partly specified), the IC50 is 25.4 µM.

In the case of `c1coc(-c2nc3ccccc3nc2-c2ccco2)c1`, the IC50 is 6.44 µM.

Take `CCN1C(=O)/C(=C\c2ccc([N+](=O)[O-])s2)C(=O)NC1=S`: the IC50 is 4.07 µM.

`CC1=C(C#N)C(=O)N(C2CCS(=O)(=O)C2)C(=O)/C1=C\c1ccc(C)o1` (stereo unspecified): the 50% inhibitory concentration (IC50) is 1.35 µM.

Take `O=C(O)CCc1ccc(-c2cccs2)n1-c1ccc(C(=O)O)cc1`: the IC50 was 45.6 µM.

Regarding `Cc1ccc(C)c2[nH]c(=O)c(CN(Cc3ccc4c(c3)OCO4)Cc3nnnn3Cc3ccco3)cc12`, the half-inhibitory concentration (IC50) is 39.6 µM.

For the compound `N#CC1=C(N)C2=C(N3CCCCC3)CCCC2C1(C#N)C#N` (stereo unspecified), the IC50 is 5.45 µM.

For `CN(C)c1ccc(N2C(=O)CSC2=S)cc1`, the half-maximal inhibitory concentration (IC50) is 54.6 µM.

Regarding `CCCNC1=C(C)C(=O)C2=C(C1=O)C(COC(N)=O)[C@]1(OC)C3NC3CN21` (stereo partly specified), the IC50 was 22.7 µM.

Consider `O=C(O)CCCCC1CCSS1` (stereo unspecified), for which the IC50 is 5.89 µM.

On to `O=C(O)c1c2c(nc3ccc(Cl)cc13)CCC2`, for which the IC50 is 13.2 µM.

For the compound `CC(C)c1ccc(N2C(=O)NC(=O)/C(=C\C=C\c3ccco3)C2=O)cc1`, the IC50 is 34.2 µM.

As for `Cc1cc2c(N)cccc2nn1`, the IC50 was 2.08 µM.

Take `CC1(C)OC(=O)C(=C2CCCN2)C(=O)O1`: the IC50 is 0.882 µM.

For `O=C(Nc1cccc(C(F)(F)F)c1)c1ccc2nc(-c3ccco3)c(-c3ccco3)nc2c1`, the IC50 is 6.07 µM.

Take `O=C(NCCCO)Nc1ccc2nc(-c3ccco3)c(-c3ccco3)nc2c1`: the IC50 was 2.01 µM.

On to `O=C(c1cc(-c2ccco2)on1)N1CCN(c2ccccc2)CC1`, for which the IC50 is 18.6 µM.

`CNc1cccccc1=S`: the IC50 was 4.41 µM.

Take `COC(=O)c1ccccc1-c1c2ccc(=N)cc-2oc2cc(N)ccc12`: the half-inhibitory concentration (IC50) was less than 0.19 µM.

For `O=C(NC(=S)Nc1cccc(S(=O)(=O)NC2=NCCC2)c1)c1cc(-c2ccco2)nc2ccccc12`, the IC50 is 8.04 µM.

Regarding `CCOC(=O)CNc1ccc2c(c1)OCO2`, the IC50 is 1.47 µM.

On to `COc1cccc(-c2cn3nc4c(nc3n2)CCCC4)c1`, for which the IC50 was 100 µM.

As for `Oc1ccc(/C=N/N2CCOCC2)c(O)c1O`, the half-maximal inhibitory concentration (IC50) is 14 µM.

For the compound `O=C1CCCC(O)=C1N=Nc1ccc(S(=O)(=O)N2CCOCC2)cc1`, the IC50 was 37.6 µM.

For `COc1cc(OC)c2c(O)c3c(c(-c4c5c(c(O)c6c(OC)cc(OC)cc46)CO[C@@H](C)[C@H]5O)c2c1)[C@H](O)[C@H](C)OC3`, the IC50 was 30.8 µM.

With `CC(C)CC(=O)Nc1nnc(-c2ccco2)s1`, the concentration for half-maximal inhibition (IC50) was 53.8 µM.

As for `COC(=O)COc1ccc(S(=O)(=O)Nc2cc(OC)ccc2OC)cc1`, the 50% inhibitory concentration (IC50) was 28.2 µM.

Take `CC1=NN(C(N)=S)C(=O)C1N=Nc1cccc([N+](=O)[O-])c1` (stereo unspecified): the IC50 was 99.2 µM.

Regarding `O=C1c2sc3nc4n(c(=O)c3c2CCC1Br)CCCCC4` (stereo unspecified), the IC50 is 4.82 µM.

On to `COc1cc2[nH]c(Cl)c([N+](=O)[O-])c2cc1OC`, for which the IC50 was 24.3 µM.

In the case of `Cc1cc(=O)c2c(O)c(O)ccc2o1`, the IC50 is 47.4 µM.

Take `CNc1ccc(Br)cc(C(=O)/C=C/c2ccc(OC)cc2)c1=O`: the IC50 is 9.15 µM.

In the case of `Cc1cc(C(=O)CSc2nnc(-c3ccco3)o2)c(C)n1Cc1ccco1`, the half-inhibitory concentration (IC50) is 4.41 µM.

In the case of `CCc1cc(=O)oc2cc(C)c(CN3CCCC3)c(O)c12`, the concentration for half-maximal inhibition (IC50) is 5.84 µM.

`O=c1ccc2c(-c3ccccc3S(=O)(=O)O)c3ccc(O)c(O)c3oc-2c1O`: the IC50 is 4.84 µM.

For `CC(=O)C1=C(C)NC(C)=C(C(C)=O)C1c1cccs1`, the IC50 is 91.4 µM.

`O=[n+]1c2c(n([O-])c3cc(Cl)ccc31)CCCC2`: the half-maximal inhibitory concentration (IC50) is 42.9 µM.

`O=C(N/N=C/C=C\c1ccco1)c1cccnc1`: the IC50 is 3.91 µM.

Turning to `CC(=O)c1ccc2c(c1)C1C=CCC1C(c1ccncc1)N2` (stereo unspecified), the concentration for half-maximal inhibition (IC50) is 36.6 µM.

Take `O=C(CN1C(=O)NC2(CCCCCCC2)C1=O)NCc1cccs1`: the IC50 was 36.5 µM.

Consider `Cc1ccc(/C=c2\sc3nc(-c4cccs4)nn3c2=O)o1`, for which the concentration for half-maximal inhibition (IC50) was 13.6 µM.

Regarding `CCOc1cccc(=O)c2c(C)oc(C)c12`, the IC50 is 22.6 µM.

For `O=C(Cc1cc(=O)[nH][nH]1)N/N=C/C=C/c1ccccc1`, the IC50 was 43.1 µM.

Take `COc1ccc(C2=CC(c3ccc(Cl)cc3)n3cnnc3N2)cc1OC` (stereo unspecified): the IC50 is 6.19 µM.

Turning to `Cc1ccc(C2C(C#N)=C(N)Oc3c2oc(CO)cc3=O)o1` (stereo unspecified), the IC50 is 5.77 µM.

Turning to `CCn1cc(Br)c(C(=O)Nc2cccc(SC)c2)n1`, the concentration for half-maximal inhibition (IC50) is 1.44 µM.

In the case of `NC(CO)C(=O)NNCc1ccc(O)c(O)c1O` (stereo unspecified), the IC50 is 8.84 µM.

As for `O=[N+]([O-])c1c(NCCCO)cc(SCc2ccco2)c2nonc12`, the 50% inhibitory concentration (IC50) was 16.5 µM.

Turning to `O=C1CC(Nc2ccc(N3CCOCC3)cc2)C(=O)N1C1CCCCC1` (stereo unspecified), the IC50 was 11.6 µM.

As to `Cc1ccc(Cl)cc1N1CCN(C(=O)COc2ccc3c(c2)CCC3)CC1`, the IC50 is 57.2 µM.

As for `CCCCn1c(SCC(=O)NCc2ccco2)nc2ccc(N3CCOCC3)cc2c1=O`, the IC50 was 22.8 µM.

With `O=[N+]([O-])c1c(NCCO)cc(Sc2nc3ccccc3s2)c2nonc12`, the 50% inhibitory concentration (IC50) is 90.1 µM.

As for `CCOC(=O)Cc1cc(=O)n2[nH]c(C)cc2n1`, the concentration for half-maximal inhibition (IC50) is 78.3 µM.

`CC[n+]1ccc(C)c2cc(P(=O)(c3ccccc3)c3ccccc3)ccc21`: the IC50 is 72.9 µM.

As for `CN(Cc1cnc2nc(N)nc(N)c2n1)c1ccc(C(=O)NC(CCC(=O)O)C(=O)O)cc1` (stereo unspecified), the IC50 was 40.1 µM.

Regarding `C=CCn1c(COc2ccc(F)cc2)nnc1SCC(=O)NC(=O)NCc1ccco1`, the 50% inhibitory concentration (IC50) is 93.8 µM.

Regarding `Cc1cccc(-n2nc3c(c2NC(=O)c2ccc(Br)o2)CSC3)c1`, the 50% inhibitory concentration (IC50) was 85.9 µM.

With `CCCOc1ccc(N)cc1N`, the IC50 was 59.5 µM.

Take `CC(C)(C)C1C/C(=C/c2ccco2)C(=O)/C(=C/c2ccco2)C1` (stereo unspecified): the IC50 was 7.08 µM.

On to `CCOC(=O)C(=O)NCc1ccc(/C=C2/N=C(C)C(C(=O)OCC)=C2O)o1`, for which the IC50 was 4.71 µM.

As for `COc1ccc(/C=N/NC(=O)c2cc(O)c(O)c(O)c2)cc1Cn1cc([N+](=O)[O-])cn1`, the IC50 is 46.7 µM.

Turning to `CCOc1ccc(NCC2CCOC(C)(C)C2)cc1` (stereo unspecified), the IC50 was 64.8 µM.

For `CSc1nc(NCCOCCO)c2sc3nc(-c4ccco4)c4c(c3c2n1)CCC4`, the IC50 is 9.42 µM.

With `C/C(=N\Nc1ccc([N+](=O)[O-])cc1[N+](=O)[O-])c1cc2c(ccc3ccccc32)oc1=O`, the half-inhibitory concentration (IC50) is 15.6 µM.

`Cc1ncc(CO)c(/C=N/NC(=O)c2cc(O)c(O)c(O)c2)c1O`: the concentration for half-maximal inhibition (IC50) is 32.1 µM.

Take `Cc1cc(/C=N/Nc2ccc([N+](=O)[O-])cn2)c(C)n1-c1ccc(C(=O)O)cc1`: the IC50 was 5.58 µM.

`CN(C)C(=O)c1nc2ccc(Cl)cn2c1CN1CCCC(OCc2ccccc2)C1` (stereo unspecified): the IC50 is 44.6 µM.

In the case of `O=C(Nc1ccccc1)C1=C(O)CC(c2ccco2)CC1=Nc1ccccc1` (stereo unspecified), the IC50 is 70.3 µM.

As to `O=C(N/N=C/c1cn(Cc2cccc(F)c2)c2ccccc12)c1cc(O)cc(O)c1`, the IC50 was 15 µM.

Turning to `O=C(NCCO)c1ccc2nc(-c3ccco3)c(-c3ccco3)nc2c1`, the IC50 is 7.34 µM.

For the compound `Cn1cnnc1SC/C(O)=C(\C#N)c1nc2ccccc2[nH]1`, the IC50 was 37.4 µM.

Turning to `CC1(C)Cc2nc3sc(C(=O)O)c(N)c3cc2CS1`, the concentration for half-maximal inhibition (IC50) is 28.3 µM.

Take `O=C1c2ccccc2C(=O)N1/N=C/c1ccc(O)c(O)c1O`: the IC50 was 14.7 µM.

On to `COC(=O)c1ccccc1NC(=O)C1CCCC1`, for which the IC50 was 4.92 µM.

With `O=C1C(Cl)=C(N2CCOCC2)C(=O)N1c1ccccc1`, the IC50 was 16.6 µM.

As for `Nc1cccc2c(O)cc(S(=O)(=O)O)cc12`, the 50% inhibitory concentration (IC50) is 19.3 µM.

On to `CNc1ccccc(-c2ccc3cc4c(cc3n2)OCO4)c1=O`, for which the IC50 is 2.22 µM.

Consider `Cc1ccc(/C=C/C2=Cc3c(sc(NC(=O)CSc4n[nH]c(N)n4)c3C#N)C(C)(C)C2)o1`, for which the IC50 was 3.04 µM.

In the case of `Cc1ccc2cc(CN(Cc3nnnn3Cc3ccco3)CC3CCCO3)c(=O)[nH]c2c1C` (stereo unspecified), the IC50 is 29.4 µM.

`C(=C\c1ccco1)/c1ccc2ccccc2n1`: the IC50 is 9.39 µM.

Regarding `O=C(O)c1cccc2cccc(-c3c4ccc(=O)c(O)c-4oc4c(O)c(O)ccc34)c12`, the IC50 was 3.38 µM.

On to `C=CCn1c(C)c(C(C)=O)c(N2CCN(c3ccccc3)CC2)nc1=S`, for which the IC50 is 7.51 µM.

Take `COC(=O)C1=C(C)NC(=O)/C1=C\c1ccco1`: the IC50 is 39.7 µM.

`CN(C)c1ccc(N2C(=O)CC(Nc3ccc(N4CCOCC4)cc3)C2=O)cc1` (stereo unspecified): the 50% inhibitory concentration (IC50) is 9.99 µM.

Consider `Cc1ccc(C)n1-c1sccc1C(=O)O`, for which the IC50 is 0.909 µM.

On to `CCCCN1C(=O)/C(=C/C=C/c2ccco2)C(=O)NC1=S`, for which the IC50 was 21.7 µM.

As for `N#CC(C#N)=Cc1cccn1-c1ccc(C(=O)O)cc1`, the IC50 was 33.3 µM.

In the case of `O=C1CCC/C(=N\NC(=O)c2ccc(COc3cccc4cccnc34)cc2)C1`, the IC50 is 82.3 µM.

On to `COc1ccc2c(c1)C(=O)c1ccccc1CO2`, for which the IC50 was 46.3 µM.

On to `Cc1cc(NC(=O)CCNS(=O)(=O)c2cc(Br)cnc2N)ccc1Br`, for which the 50% inhibitory concentration (IC50) was 93.7 µM.

In the case of `O=C1NC(=S)S/C1=C\c1ccc(SCc2ccco2)o1`, the IC50 was 0.926 µM.

For `CC(=O)c1ccc2c(c1)C1C=CCC1C(C(=O)O)N2` (stereo unspecified), the IC50 was 2.47 µM.

Take `Cc1ccc(NC(=O)COc2ccc(/C=N/NC(=O)CSCc3ccccc3)cc2)cc1`: the IC50 is 16.3 µM.

In the case of `CC1=CN2C(=N)/C(=C/c3ccc([N+](=O)[O-])o3)C(=O)N=C2S1`, the IC50 was 12.2 µM.
